Assay results reported in patent publication US11908550B2, “Method for determining different PBDEs derivatives from their response to activities of enoyl-ACP reductase” (Nanjing University, priority 2020, dated 2024).
“Also recorded” adds a separate entry of the source.

Biological target: T1, enoyl-ACP reductase (recombinant FabI) (Escherichia coli, UniProt P0AEK4)
T1 construct: His; made in house; host or cells: E. coli
Assay: in vitro binding activity assay (FabI enzyme activity, oxidation rate of NADH to NAD+ at 340 nm)
Type: biochemical, E. coli
Settings: PBDEs 0.014-10 μM incubated with 100 nM recombinant FabI on ice for 60 minutes
Experimental: The in vitro binding activity assay was as follows: overexpression of His-labeled FabI in the E. coli lysate was prepared. When the bacterial optical density (OD600) reached 0.6, the expression was induced overnight with 1 mm IPTG at 16° C. Then, the bacteria were collected and washed once with PBS. The bacteria were lysed in the lysis buffer containing 500 mM NaCl, 10 mm Tris HCl and 0.1% NP-40 (pH=8.5). FabI was purified from the supernatant with Ni-NTA agarose (Qiagen) and centrifuged at 14000 g for 30 min. The resin containing Ni-NTA was transferred to a Poly-Prep column (Bio-Red) and equilibrated twice with washing buffer (50 mm PBS, pH 8.2, 300 mM NaCl and 10 mm imidazole). After incubation with FabI lysate at 4° C. for 30 minutes, the resin was washed twice with a washing buffer, and the FabI protein was eluted with a buffer containing 50 mm PBS, pH 8.2, 300 mM NaCl and 250 mm imidazole. 300 μM butyl coenzyme A was added and followed by adding the mixture of 100 nM recombinant FabI, 400 μM NADH and 40 μM NAD+. The oxidation rate of NADH to NAD+ was measured every 2 minutes with a microplate reader at 340 nm. In order to determine the inhibition ability of PBDEs derivatives to the FabI enzyme activity, PBDEs with different concentrations (0.014-10 μM) were incubated with 100 nM recombinant FabI on ice for 60 minutes, and then the oxidation rate of NADH to NAD+ was determined.

T1 sequence (P0AEK4 whole entry): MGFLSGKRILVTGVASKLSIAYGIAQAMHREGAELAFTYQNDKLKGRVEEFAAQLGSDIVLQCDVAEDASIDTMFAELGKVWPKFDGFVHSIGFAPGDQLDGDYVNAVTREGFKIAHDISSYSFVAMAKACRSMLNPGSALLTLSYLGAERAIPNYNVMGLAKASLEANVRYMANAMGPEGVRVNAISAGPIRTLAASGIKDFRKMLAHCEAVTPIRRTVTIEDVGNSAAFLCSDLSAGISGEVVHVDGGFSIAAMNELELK

Compound	in vitro measurement of the binding activity
Oc1c(Br)cc(Br)c(Br)c1Oc1ccc(Br)cc1Br [6OHBDE90]	Inhibit
Oc1c(Br)c(Br)c(Br)c(Br)c1Oc1ccc(Br)cc1Br [6OHBDE137]	Inhibit
COc1ccc(Oc2ccc(Br)cc2Br)c(Br)c1 [4MeOBDE17]	No inhibition; also recorded: No inhibit
Oc1cc(Cl)ccc1Oc1ccc(Cl)cc1Cl [TCS, Triclosan, reference compound]	Inhibit
Oc1cc(Br)cc(Br)c1Oc1ccccc1Br [6OHBDE17]	Inhibit
COc1cc(Br)c(Br)c(Br)c1Oc1ccc(Br)cc1Br [6MeOBDE85]	No inhibition; also recorded: No inhibit
COc1cc(Oc2ccc(Br)cc2Br)c(Br)cc1Br [5MeOBDE47]	No inhibition; also recorded: No inhibit
Oc1c(Oc2ccc(Br)cc2Br)cc(Br)c(Br)c1Br [2OHBDE123]	No inhibition; also recorded: No inhibit
Oc1cc(Br)cc(Br)c1Oc1ccc(Br)cc1Br [6OHBDE47]	Inhibit
Oc1cc(Br)c(Oc2ccc(Br)cc2Br)cc1Br [4OHBDE49]	able to inhibit; also recorded: inhibition
COc1c(Br)cc(Br)c(Br)c1Oc1ccc(Br)cc1Br [6MeOBDE90]	No inhibition; also recorded: No inhibit
COc1cc(Br)cc(Br)c1Oc1ccccc1Br [6MeOBDE17]	No inhibition; also recorded: No inhibit
COc1cc(Br)cc(Br)c1Oc1ccc(Br)cc1Br [6MeOBDE47]	No inhibition; also recorded: No inhibit
